Experimental data as given in US7635572B2, “Methods for conducting assays for enzyme activity on protein microarrays” (Life Technologies Corporation, priority 2004, dated 2009).

Biological target: FYN (Homo sapiens, UniProt P06241)
Experiment: Global specificity profiling, single point inhibition on kinase microarrays (Example VII)
Assay type: biochemical
Settings: substrates histone, casein, MBP, polyEY
Description: To assess the application of microarray assays for compound profiling, seven known inhibitors (see Table of inhibitors used in global specificity profiling experiment) and one control (2% DMSO) were tested on microarrays printed with a group of kinases (as well as positive and negative controls). […] Twelve spots of each kinase or control were printed on each array, and three arrays were used for each inhibitor. A mixture of generic kinase substrates (histone, casein, MBP, and polyEY) was used in the assay. The average of all signals from the same inhibitor or control experiment was calculated.
To expedite data analysis regarding the kinase families that are inhibited by a particular […], a graphical representation can be constructed of inhibition data for substrates in such a manner that phylogenetically related kinases can be spatially arranged on the graphical representation.

Sequence of FYN (P06241 whole entry): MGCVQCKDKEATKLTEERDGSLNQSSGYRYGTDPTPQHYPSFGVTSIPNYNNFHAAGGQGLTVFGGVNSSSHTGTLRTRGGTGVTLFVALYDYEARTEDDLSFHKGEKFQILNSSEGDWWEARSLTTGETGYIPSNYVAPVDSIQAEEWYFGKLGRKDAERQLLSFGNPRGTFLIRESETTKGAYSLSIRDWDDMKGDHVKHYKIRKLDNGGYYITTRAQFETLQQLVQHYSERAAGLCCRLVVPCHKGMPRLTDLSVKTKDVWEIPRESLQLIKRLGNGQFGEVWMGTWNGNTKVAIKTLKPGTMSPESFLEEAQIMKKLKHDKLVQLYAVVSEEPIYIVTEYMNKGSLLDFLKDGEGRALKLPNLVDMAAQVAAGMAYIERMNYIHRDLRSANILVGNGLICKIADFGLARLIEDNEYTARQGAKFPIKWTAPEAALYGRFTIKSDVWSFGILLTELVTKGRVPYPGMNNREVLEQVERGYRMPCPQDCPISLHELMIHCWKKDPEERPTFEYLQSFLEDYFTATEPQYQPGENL

CN[C@@H]1C[C@H]2O[C@@](C)([C@@H]1OC)n1c3ccccc3c3c4c(c5c6ccccc6n2c5c31)C(=O)NC4 [Staurosporine] was tested, and the “inhibition of FYN in global specificity profiling” value was “inhibited”.
